From US8987195B2 (priority 2012, dated 2015)
Where two headings read alike, the source gives them in different places.

Tests used:
HCV genotype 1b replicon = test: HCV replicon assay, genotype 1b replicon EC50; assay type: cell-based, Hepatitis C virus; details: Hepatitis C virus, read-out: EC50 [gt-1b]
Summary of the method: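 Readout was replicon RNA copy number, by 32P-probe protection or TaqMan normalized to cellular cyclophilin A RNA, or luciferase activity for luciferase:Neo^r fusion lines. Cells were exposed to serially diluted compound for 24-48 hours without G418, then washed and lysed. EC50 derived from four-parameter fit relative to DMSO.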

[1] = target: HCV NS3/4A protease genotype 1b (Hepatitis C virus genotype 1b, UniProt P26663); test: HCV NS3/4A protease time-resolved fluorescence (TRF) assay, Ki against genotype 1b; assay type: biochemical
Summary of the method: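 NS3/4A enzyme was preincubated 30 min with inhibitor in 50 mM HEPES pH 7.5, 150 mM NaCl, 15% glycerol, 0.15% Triton X-100, 10 mM DTT, 0.1% PEG 8000; 25 nM europium TRF peptide substrate added, 2.5 h at room temperature. Enzyme: 0.2 nM (1b), 0.4 nM (A156T), 0.025 nM (3a). Ki from IC50 via Cheng-Prusoff.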

[2] = IC50 [gt-1b] (nM), NS3/4A genotype 1b, enzyme 0.2 nM
[3] = IC50 [gt-1b] (nM), NS3/4A genotype 1b, enzyme 0.2 nM, K+ salt
[4] = IC50 [gt-1b], NS3/4A protease TRF assay, genotype 1b enzyme 0.2 nM

## Cc1nc2ccccc2c2c1O[C@]1(CC2)C[C@H]2C(=O)N[C@]3(C(=O)NS(=O)(=O)C4(C)CC4)C[C@H]3/C=C\CCCCC[C@H](Nc3ccccn3)C(=O)N2C1 [Example 353, (2R,6S,12Z,13aS,14aR,16aS)-5′-methyl-N-[(1-methylcyclopropyl)sulfonyl]-5,16-dioxo-6-(pyridin-2-ylamino)-1,1′,2′,6,7,8,9,10,11,13a,14,15,16,16a-tetradecahydrospiro[cyclopropa[e]pyrrolo[1,2-a][1,4]diazacyclopentadecine-2,3′-pyrano[2,3-c]quinoline]-14a(5R)-carboxamide]
HCV genotype 1b replicon; genotype 1b replicon
  EC50: 39.5 nM
[1]; [2]
  IC50: 0.111 nM

## COc1ccc2nc(C)c3c(c2c1)[C@@H](F)C[C@]1(C[C@H]2C(=O)N[C@]4(C(=O)NS(=O)(=O)C5(C)CC5)C[C@H]4/C=C\CCCCC[C@H](NC(=O)OC(C)(C)C)C(=O)N2C1)O3 [Example 354, tert-butyl [(1′S,2S,6S,12Z,13aS,14aR,16aS)-1′-fluoro-9′-methoxy-5′-methyl-14a-{[(1-methylcyclopropyl)sulfonyl]carbamoyl}-5,16-dioxo-1,1′,2′,5,6,7,8,9,10,11,13a,14,14a,15,16,16a-hexadecahydrospiro[cyclopropa[e]pyrrolo[1,2-a][1,4]diazacyclopentadecine-2,3′-pyrano[2,3-c]quinolin]-6-yl]carbamate]
HCV genotype 1b replicon; genotype 1b replicon
  EC50: 103 nM
[1]; [2]
  IC50: 0.169 nM

## COc1ccc2nc(C)c3c(c2c1)[C@H](F)C[C@]1(C[C@H]2C(=O)N[C@]4(C(=O)NS(=O)(=O)C5(C)CC5)C[C@H]4/C=C\CCCCC[C@H](NC(=O)OC(C)(C)C(F)(F)F)C(=O)N2C1)O3 [Example 355, 1,1,1-trifluoro-2-methylpropan-2-yl [(1′R,2S,6S,12Z,13aS,14aR,16aS)-1′-fluoro-9′-methoxy-5′-methyl-14a-{[(1-methylcyclopropyl)sulfonyl]carbamoyl}-5,16-dioxo-1,1′,2′,5,6,7,8,9,10,11,13a,14,14a,15,16,16a-hexadecahydrospiro[cyclopropa[e]pyrrolo[1,2-a][1,4]diazacyclopentadecine-2,3′-pyrano[2,3-c]quinolin]-6-yl]carbamate]
HCV genotype 1b replicon; genotype 1b replicon, K+ salt
  EC50: 3.77 nM
[1]; [3]
  IC50: 0.02 nM

## COc1ccc2nc(C)c3c(c2c1)[C@H](F)C[C@]1(C[C@H]2C(=O)N[C@]4(C(=O)NS(=O)(=O)C5(C)CC5)C[C@H]4/C=C\CCCCC[C@H](NC(=O)O[C@H](C)C(C)C)C(=O)N2C1)O3 [Example 356, (2R)-3-methylbutan-2-yl [(1′R,2S,6S,12Z,13aS,14aR,16aS)-1′-fluoro-9′-methoxy-5′-methyl-14a-{[(1-methylcyclopropyl)sulfonyl]carbamoyl}-5,16-dioxo-1,1′,2′,5,6,7,8,9,10,11,13a,14,14a,15,16,16a-hexadecahydrospiro[cyclopropa[e]pyrrolo[1,2-a][1,4]diazacyclopentadecine-2,3′-pyrano[2,3-c]quinolin]-6-yl]carbamate]
HCV genotype 1b replicon; genotype 1b replicon, K+ salt
  EC50: 3.73 nM
[1]; [3]
  IC50: 0.012 nM

## COc1ccc2nc(C)c3c(c2c1)[C@H](F)C[C@]1(C[C@H]2C(=O)N[C@]4(C(=O)NS(=O)(=O)C5(C)CC5)C[C@H]4/C=C\CCCCC[C@H](NC(=O)O[C@@H](C)C(C)C)C(=O)N2C1)O3 [Example 357, (2S)-3-methylbutan-2-yl [(1′R,2S,6S,12Z,13aS,14aR,16aS)-1′-fluoro-9′-methoxy-5′-methyl-14a-{[(1-methylcyclopropyl)sulfonyl]carbamoyl}-5,16-dioxo-1,1′,2′,5,6,7,8,9,10,11,13a,14,14a,15,16,16a-hexadecahydrospiro[cyclopropa[e]pyrrolo[1,2-a][1,4]diazacyclopentadecine-2,3′-pyrano[2,3-c]quinolin]-6-yl]carbamate]
HCV genotype 1b replicon; genotype 1b replicon, K+ salt
  EC50: 2.91 nM
[1]; [3]
  IC50: 0.01 nM

## COc1ccc2nc(C)c3c(c2c1)[C@H](F)C[C@]1(C[C@H]2C(=O)N[C@]4(C(=O)NS(=O)(=O)C5(C)CC5)C[C@H]4/C=C\CCCCC[C@H](NC(=O)O[C@@H](C)C(C)C)C(=O)N2C1)O3 [Example 358, (2S)-3-methylbutan-2-yl [(1′R,2S,6S,12Z,13aS,14aR,16aS)-1′-fluoro-9′-methoxy-5′-methyl-14a-{[(1-methylcyclopropyl)sulfonyl]carbamoyl}-5,16-dioxo-1,1′,2′,5,6,7,8,9,10,11,13a,14,14a,15,16,16a-hexadecahydrospiro[cyclopropa[e]pyrrolo[1,2-a][1,4]diazacyclopentadecine-2,3′-pyrano[2,3-c]quinolin]-6-yl]carbamate]
HCV genotype 1b replicon; HCV replicon, genotype 1b, K+ salt
  EC50: 42.8 nM
[1]; IC50 [gt-1b], NS3/4A protease TRF assay, genotype 1b enzyme 0.2 nM, K+ salt
  IC50: 0.172 nM

## Cc1nc2ccccc2c2c1O[C@]1(CC2)C[C@H]2C(=O)N[C@]3(C(=O)NS(=O)(=O)C4(C)CC4)C[C@H]3/C=C\CCCCC[C@H](Nc3ncccn3)C(=O)N2C1 [Example 359, (2R,6S,12Z,13aS,14aR,16aS)-5′-methyl-N-[(1-methylcyclopropyl)sulfonyl]-5,16-dioxo-6-(pyrimidin-2-ylamino)-1,1′,2′,6,7,8,9,10,11,13a,14,15,16,16a-tetradecahydrospiro[cyclopropa[e]pyrrolo[1,2-a][1,4]diazacyclopentadecine-2,3′-pyrano[2,3-c]quinoline]-14a(5H)-carboxamide]
HCV genotype 1b replicon; HCV replicon, genotype 1b
  EC50: 205 nM
[1]; [4]
  IC50: 0.4 nM

## Cc1nc2ccccc2c2c1O[C@]1(CC2)C[C@H]2C(=O)N[C@]3(C(=O)NS(=O)(=O)C4(C)CC4)C[C@H]3/C=C\CCCCC[C@H](Nc3nccs3)C(=O)N2C1 [Example 360, (2R,6S,12Z,13aS,14aR,16aS)-5′-methyl-N-[(1-methylcyclopropyl)sulfonyl]-5,16-dioxo-6-(1,3-thiazol-2-ylamino)-1,1′,2′,6,7,8,9,10,11,13a,14,15,16,16a-tetradecahydrospiro[cyclopropa[e]pyrrolo[1,2-a][1,4]diazacyclopentadecine-2,3′-pyrano[2,3-c]quinoline]-14a(5H)-carboxamide]
HCV genotype 1b replicon; HCV replicon, genotype 1b
  EC50: 140 nM
[1]; [4]
  IC50: 0.143 nM

## COc1ccc2nc(C)c3c(c2n1)CC[C@]1(C[C@H]2C(=O)N[C@]4(C(=O)NS(=O)(=O)C5(C)CC5)C[C@H]4/C=C\CCCCC[C@H](NC(=O)OCC(C)C)C(=O)N2C1)O3 [Example 362, 2-methylpropyl [(2R,6S,12Z,13aS,14aR,16aS)-2′-methoxy-6′-methyl-14a-{[(1-methylcyclopropyl)sulfonyl]carbamoyl}-5,16-dioxo-1,5,6,7,8,9,9′,10,10′,11,13a,14,14a,15,16,16a-hexadecahydrospiro[cyclopropa[e]pyrrolo[1,2-a][1,4]diazacyclopentadecine-2,8′-pyrano[2,3-c][1,5]naphthyridin]-6-yl]carbamate]
HCV genotype 1b replicon; HCV replicon, genotype 1b
  EC50: 4.07 nM
[1]; [4]
  IC50: 0.008 nM

## COc1ccc2nc(C)c3c(c2n1)CC[C@]1(C[C@H]2C(=O)N[C@]4(C(=O)NS(=O)(=O)C5(C)CC5)C[C@H]4/C=C\CCCCC[C@H](NC(=O)OC4CCCC4)C(=O)N2C1)O3 [Example 363, cyclopentyl [(2R,6S,12Z,13aS,14aR,16aS)-2′-methoxy-6′-methyl-14a-{[(1-methylcyclopropyl)sulfonyl]carbamoyl}-5,16-dioxo-1,5,6,7,8,9,9′,10,10′,11,13a,14,14a,15,16,16a-hexadecahydrospiro[cyclopropa[e]pyrrolo[1,2-a][1,4]diazacyclopentadecine-2,8′-pyrano[2,3-c][1,5]naphthyridin]-6-yl]carbamate]
HCV genotype 1b replicon; HCV replicon, genotype 1b
  EC50: 8.16 nM
[1]; [4]
  IC50: 0.011 nM

## COc1ccc2nc(C)c3c(c2n1)CC[C@]1(C[C@H]2C(=O)N[C@]4(C(=O)NS(=O)(=O)C5(C)CC5)C[C@H]4/C=C\CCCCC[C@H](NC(=O)OC4(C)CC4)C(=O)N2C1)O3 [Example 364, 1-methylcyclopropyl [(2R,6S,12Z,13aS,14aR,16aS)-2′-methoxy-6′-methyl-14a-{[(1-methylcyclopropyl)sulfonyl]carbamoyl}-5,16-dioxo-1,5,6,7,8,9,9′,10,10′,11,13a,14,14a,15,16,16a-hexadecahydrospiro[cyclopropa[e]pyrrolo[1,2-a][1,4]diazacyclopentadecine-2,8′-pyrano[2,3-c][1,5]naphthyridin]-6-yl]carbamate]
HCV genotype 1b replicon; HCV replicon, genotype 1b
  EC50: 5.46 nM
[1]; [4]
  IC50: 0.012 nM

## COc1ccc2nc(C)c3c(c2n1)CC[C@]1(C[C@H]2C(=O)N[C@]4(C(=O)NS(=O)(=O)C5(C)CC5)C[C@H]4/C=C\CCCCC[C@H](NC(=O)OC4(C)CCC4)C(=O)N2C1)O3 [Example 365, 1-methylcyclobutyl [(2R,6S,12Z,13aS,14aR,16aS)-2′-methoxy-6′-methyl-14a-{[(1-methylcyclopropyl)sulfonyl]carbamoyl}-5,16-dioxo-1,5,6,7,8,9,9′,10,10′,11,13a,14,14a,15,16,16a-hexadecahydrospiro[cyclopropa[e]pyrrolo[1,2-a][1,4]diazacyclopentadecine-2,8′-pyrano[2,3-c][1,5]naphthyridin]-6-yl]carbamate]
HCV genotype 1b replicon; HCV replicon, genotype 1b
  EC50: 4.93 nM
[1]; [4]
  IC50: 0.02 nM

## COc1ccc2nc(C)c3c(c2c1)CC[C@]1(C[C@H]2C(=O)N[C@]4(C(=O)NS(=O)(=O)C5(C)CC5)C[C@H]4/C=C\CCCCC[C@H](NC(=O)OC(C(C)(C)C)C(F)(F)F)C(=O)N2C1)O3 (stereo partly drawn) [Example 366, 1,1,1-trifluoro-3,3-dimethylbutan-2-yl [(2R,6S,12Z,13aS,14aR,16aS)-9′-methoxy-5′-methyl-14a-{[(1-methylcyclopropyl)sulfonyl]carbamoyl}-5,16-dioxo-1,1′,2′,5,6,7,8,9,10,11,13a,14,14a,15,16,16a-hexadecahydrospiro[cyclopropa[e]pyrrolo[1,2-a][1,4]diazacyclopentadecine-2,3′-pyrano[2,3-c]quinolin]-6-yl]carbamate]
HCV genotype 1b replicon; HCV replicon, genotype 1b
  EC50: 6.46 nM
[1]; [4]
  IC50: 0.023 nM
